In patent US9572788B2, “Cell permeable inhibitors of anaphase promoting complex” (President and Fellows of Harvard College, priority 2014, dated 2017):

Tests used:
[1] = tested on: RPE1-H2B-GFP cells; assay: Fluorescence live cell imaging with survival (Cox) analysis, RPE1; type: cell-based, human; settings: proTAME 6 μM; for % rate of mitotic exit: relative to DMSO control, Cox model, apcin/apcin-M 25 μM; for Median mitotic duration: apcin or apcin-M 25 μM
Method: RPE1-H2B-GFP or U2OS-H2B-GFP cells were plated in 24-well glass-bottom plates 18-24 hours prior to siRNA transfection using RNAiMax (Invitrogen). After treatment with compound(s), DIC and GFP images were captured at 6-minute intervals for 45 hours. Movies were manually analyzed using Nikon Elements software or Image J.
RPE1-H2B-GFP or U2OS-H2B-GFP cells were plated in 24-well glass-bottom plates (Greiner BioOne, 662892) 18-24 hours prior to siRNA transfection using RNAiMax (Invitrogen). Plates were inserted into a covered chamber supplied with humidified 5% CO2 and mounted onto a motorized microscope stage (Prior Scientific). DIC and FITC images were captured at 6 minute intervals for 45 hours using a Nikon Ti inverted fluorescence microscope fitted with a 37° C. enclosed incubation chamber and using a 20× Plan Apo 0.75 NA objective lens. A Hamamatsu ORCA cooled CCD camera collected the images with 2×2 binning using Nikon Elements software (version 3.0). Movies were manually analyzed using Nikon Elements software or ImageJ. Mitotic duration was defined as the time from nuclear envelope breakdown until anaphase, in the case of normal mitosis, or until exit from prolonged mitosis as indicated by cytoplasmic blebbing accompanied by changes in chromatin as detected by H2B-GFP.
In order to detect differences in mitotic duration among cells in the live-cell imaging screen, a stratified Cox proportional hazards model (Cox, D. R. Regression models and life tables. J Royal Statistics Soc B34, 187-220, (1972)) was fit to censored mitotic duration times (where cells that are not observed exiting mitosis or dying in mitosis are censored at the last known time in mitosis). The Cox proportional hazards model is a semiparameteric approach to modeling time-to-event data, in which covariates are assumed to have constant proportional effects over time relative to a baseline hazard function that can take any form. In this case, stratification on “person” (the individual who analyzed the movie) and “date” (the date the assay was run) allow the baseline hazard function to differ across experimental blocks, but assume a fixed effect of treatment across experimental blocks. The model is thus: hi(t|Z=j)=hj(t)exp(β1×apcini+β2×apcinMi+β3×proTAMEi+β4×proTAMEi:apcinMi+β5×proTAMEi:apcini), j=1 . . . 4 where hi(t) is the hazard function of cell i at time t, hj(t) is the baseline hazard for strata j (with 4 levels, one for each person and date combination), apcini, proTAMEi, and apcinMi are indicator variables for presence or absence of the compounds apcin, proTAME, and apcin-M, respectively in cell i, proTAMEi:apcini is an indicator variable that is 1 if both proTAME and apcin are present in cell i, and 0 otherwise, and proTAMEi:apcinMi is a similar indicator variable for proTAME+apcin-M. In this model, […] represent the effects of apcin, apcin-M, and proTAME alone, while β4 and β5 represent the additional non-additive effect of the compounds beyond what is predicted from the combination of effects of the two compounds alone. This model was fit separately to cells treated with control siRNA or Mad2 siRNA. All statistical analysis was carried out in R 3.0.0 using the functions available as part of the survival package.
In this model, the β coefficients represent the log hazard ratios for exiting mitosis between treated and untreated cells. However, for ease of interpretation the β coefficients are exponentiated to convert them to normal hazard ratios, and then multiplied by 100 to convert to percentages relative to DMSO. These hazard ratios, which are referred to as mitotic exit rate, represent the relative probability that a treated cell in mitosis at time t will exit mitosis in the next time interval compared to an untreated cell.
For ease of interpretation, the treatment effects are presented relative to DMSO for all individual compounds and compound combinations. […]

[2] = tested on: HeLa H2B-GFP cells; assay: Emi1 knockdown and proTAME rescue; type: cell-based, human; settings: 12 μM
Method: HeLa H2B-GFP cells were plated in glass-bottom 24-well plates at 20% confluence one day prior to the experiment. Cells were transfected with a pool of Emi1 siRNA (Dharmacon M-012434-01, 5′-[…]-3′ (SEQ ID NO: 4); 5′-[…]-3′ (SEQ ID NO: 5); 5′-[…]-3′ (SEQ ID NO: 6); 5′-[…]-3′ (SEQ ID NO: 7)) or Control#3 siRNA (described above) at 18.5 nM with DharmaFect3. After 24 h, cells were treated with 0.06% DMSO or 12 μM proTAME. Live cell imaging was set up as described above.

[3] = ProTAME activation analysis (LC/MS) in extract; type: in vitro ADME; settings: 50 μM in interphase Xenopus extract
Method: (§1) ProTAME was added to interphase Xenopus extract at 50 μM or cell growth media at 20 μM. For interphase extract, 800 μl of sample was collected at 0 min, 10 min, 20 min and 30 min after addition of proTAME and diluted to 8 ml with XB. For cell culture, approximately 800,000 cells were collected at 1 h, 2 h and 3 h after addition of proTAME and lysed in 400 μl lysis buffer as described above and subsequently diluted to 4 ml with lysis buffer. The diluted extract or cell lysate was extracted with 1.5 volume of ethyl acetate. The extracts were dried in vacuo and the dry extracts were resuspended in 200 μl of methanol for LC/MS analysis. LC/MS data were obtained using an Agilent series 1200 LC/6130 MS system with a reversed-phase C18 column (Phenomenex Luna C18(2), 4.6 mm×100 mm, 5 μm) and a CH3CN/H2O gradient solvent system beginning with 10% aqueous CH3CN and ending at 100% CH3CN at 20 min. 10 μl of each sample was injected for each analysis.

[4] = tested on: HeLa cells; assay: ProTAME activation analysis (LC/MS) in HeLa cells; type: in vitro ADME, human; settings: 20 μM
Method: as §1

COC(=O)[C@H](CCCN/C(=N\C(=O)OCOC(=O)Cc1ccccc1)NC(=O)OCOC(=O)Cc1ccccc1)NS(=O)(=O)c1ccc(C)cc1 [proTAME]
% rate of mitotic exit ([1]; Mad2 siRNA): 0.22% | Median mitotic duration ([1]; Table 3, control siRNA): 120 | Median mitotic duration ([1]; Table 3, mad2 siRNA): 114 | % rate of mitotic exit ([1]; control siRNA): 2.32% | Rescue of mitotic entry defect in Emi1-depleted cells [2]: substantially rescued the mitotic entry defect caused by depletion of Emi1 | Conversion of prodrug to TAME [3]: rapidly converted to TAME | Activation of prodrug [4]: activated efficiently in HeLa cells
